{
  "source": "patent US11684614B2",
  "about": "“Formulations of hydroxypyridonate actinide/lanthanide decorporation agents” (priority 2017, dated 2023)",
  "experiment": "3,4,3-LI(1,2-HOPO)-excipient compatibility study (visual observation, HPLC purity and impurities on storage)",
  "assay_type": "physicochemical",
  "details": "for 3L1O Purity / Total Impurities: n = 1",
  "method": "The objective of the analytical study described in this report was to evaluate the interactions between 3,4,3-L1(1,2-HOPO) and selected pharmaceutical excipients under 25° C./60% RH and 40° C./75% RH conditions over eight weeks. Physical appearance and potency of the different samples were assessed at T=0, 2, 4, and 8 weeks through visual observations and high performance liquid chromatography (HPLC) analysis.\nThe stability of 3,4,3-L1(1,2-HOPO) was tested according to the conditions listed below in TABLE 1.1. A11 test samples were stored throughout the study in 40 mL clear USP Type 1 glass vials (28 mm OD×95 mm height; 24 mm screw cap), wrapped in aluminum foil.\n• Test Samples: Each test mixture was prepared by weighing the desired quantity of 3,4,3-L1(1,2-HOPO) and excipient (both screened through sieve #40) into vials. Both ingredients were first mixed using a clean glass rod and then vortexed. At each time interval, one vial was withdrawn from each drug-excipient series along with the corresponding placebo preparation and tested as described below.\nb. Sample Characterization • Visual Observation: For each sample solution, visual observation consisted in recording color and physical form.\nc. Chromatographic Assay and Purity Assessment • Standard Stock Solutions: For each standard stock solutions, the test article was weighed (200 mg) and dissolved by sonication into 30 mL of diluent (water:acetonitrile=90%:10%). After equilibration at room temperature, the volume of the standard solution was adjusted to 50 mL. Standard stock solutions were prepared in duplicates, working standard solutions were prepared by dilution of each stock with the diluent to the desired concentrations. • Calibration Standards: With each experiment, 5 calibration standard solutions at different concentrations were prepared from stock solutions using the diluent. Concentrations of the calibration standards were between 1.6 and 2.4 mg/mL. […] The vials were then mechanically shaken for 15 minutes, followed by centrifugation of the sample solutions (10,000 rpm, 10 min), and the supernatants were used for the assay. • Placebo Preparation: 25 mL of diluent was added to each of the placebo vial. The vials were then mechanically shaken for 15 minutes, followed by centrifugation of the sample solutions (10,000 rpm, 10 min), and the supernatants were used for the assay. Analytical Method: Instrument: Waters Alliance 2695 liquid chromatography system Column: Agilent, Eclipse XDB-C18, 4.6×150 mm, 5 μm. Mobile Phase A: 0.05% formic acid in 95% H2O: 5% ACN Mobile Phase B: 0.05% formic acid in acetonitrile (ACN)\nColumn Temperature: 25° C. Flow Rate: 1.0 mL/min. Injection Volume: 10 μL Detection: 250 nm Run Time: 50 min Diluent: 9:1 H2O:ACN Analysis Sequence:\n• Suitability Requirements: There should be no interference from the diluent/blank at the retention times of 3,4,3-L1(1,2-HOPO) peaks. The relative standard deviation (% RSD) for five replicate system suitability injections should be below 2.0%. The response factor of the second standard should be within 95-105%. The correlation coefficient (R2) of the system linearity standards should be higher than 0.990. 5. Results",
  "data": [
    {"compound": "O=C(NCCCN(CCCCN(CCCNC(=O)c1cccc(=O)n1O)C(=O)c1cccc(=O)n1O)C(=O)c1cccc(=O)n1O)c1cccc(=O)n1O", "note": "[3,4,3-L1(1,2-HOPO)]", "values": [
      {"measurement": "Stability of 3,4,3-L1(1,2-HOPO)", "setting": "25° C./60% RH and 40° C./75% RH, over 8 weeks", "value": "stable over 8 weeks"},
      {"measurement": "Unknown Impurity RRT 0.24", "setting": "25° C./60% RH, 2 Weeks", "value": 0.03, "unit": "% w/w"},
      {"measurement": "Unknown Impurity RRT 0.58", "setting": "25° C./60% RH, 2 Weeks", "value": 0.05, "unit": "% w/w"},
      {"measurement": "Unknown Impurity RRT 0.59", "setting": "25° C./60% RH, 2 Weeks", "value": 0.05, "unit": "% w/w"},
      {"measurement": "Unknown Impurity RRT 0.62", "setting": "25° C./60% RH, 2 Weeks", "value": 0.05, "unit": "% w/w"},
      {"measurement": "Unknown Impurity RRT 0.87", "setting": "25° C./60% RH, 2 Weeks", "value": 0.12, "unit": "% w/w"},
      {"measurement": "Unknown Impurity RRT 0.89", "setting": "25° C./60% RH, 2 Weeks", "value": 0.03, "unit": "% w/w"},
      {"measurement": "Unknown Impurity RRT 1.02", "setting": "25° C./60% RH, 2 Weeks", "value": 0.08, "unit": "% w/w"},
      {"measurement": "Unknown Impurity RRT 1.11", "setting": "25° C./60% RH, 2 Weeks", "value": 0.05, "unit": "% w/w"},
      {"measurement": "Unknown Impurity RRT 1.27", "setting": "25° C./60% RH, 2 Weeks", "value": 0.36, "unit": "% w/w"},
      {"measurement": "Unknown Impurity RRT 1.3", "setting": "25° C./60% RH, 2 Weeks", "value": 0.22, "unit": "% w/w"},
      {"measurement": "Unknown Impurity RRT 1.39", "setting": "25° C./60% RH, 2 Weeks", "value": 0.07, "unit": "% w/w"},
      {"measurement": "Unknown Impurity RRT 1.41", "setting": "25° C./60% RH, 2 Weeks", "value": 0.03, "unit": "% w/w"},
      {"measurement": "Unknown Impurity RRT 1.46", "setting": "25° C./60% RH, 2 Weeks", "value": 0.08, "unit": "% w/w"},
      {"measurement": "Unknown Impurity RRT 2.31", "setting": "25° C./60% RH, 2 Weeks", "value": 0.05, "unit": "% w/w"},
      {"measurement": "Unknown Impurity RRT 2.6", "setting": "25° C./60% RH, 2 Weeks", "value": 0.04, "unit": "% w/w"},
      {"measurement": "Unknown Impurity RRT 2.8", "setting": "25° C./60% RH, 2 Weeks", "value": 0.03, "unit": "% w/w"},
      {"measurement": "3L1O Purity", "setting": "25° C./60% RH, 2 Weeks", "value": 98.67, "unit": "% Area"},
      {"measurement": "Total Impurities", "setting": "25° C./60% RH, 2 Weeks", "value": 1.33, "unit": "% Area"},
      {"measurement": "Unknown Impurity RRT 0.24", "setting": "25° C./60% RH, 4 weeks", "value": 0.03, "unit": "% w/w"},
      {"measurement": "Unknown Impurity RRT 0.58", "setting": "25° C./60% RH, 4 weeks", "value": 0.07, "unit": "% w/w"},
      {"measurement": "Unknown Impurity RRT 0.6", "setting": "25° C./60% RH, 4 weeks", "value": 0.05, "unit": "% w/w"},
      {"measurement": "Unknown Impurity RRT 0.62", "setting": "25° C./60% RH, 4 weeks", "value": 0.05, "unit": "% w/w"},
      {"measurement": "Unknown Impurity RRT 0.87", "setting": "25° C./60% RH, 4 weeks", "value": 0.14, "unit": "% w/w"},
      {"measurement": "Unknown Impurity RRT 0.89", "setting": "25° C./60% RH, 4 weeks", "value": 0.02, "unit": "% w/w"},
      {"measurement": "Unknown Impurity RRT 1.03", "setting": "25° C./60% RH, 4 weeks", "value": 0.04, "unit": "% w/w"},
      {"measurement": "Unknown Impurity RRT 1.11", "setting": "25° C./60% RH, 4 weeks", "value": 0.05, "unit": "% w/w"},
      {"measurement": "Unknown Impurity RRT 1.27", "setting": "25° C./60% RH, 4 weeks", "value": 0.28, "unit": "% w/w"},
      {"measurement": "Unknown Impurity RRT 1.3", "setting": "25° C./60% RH, 4 weeks", "value": 0.26, "unit": "% w/w"},
      {"measurement": "Unknown Impurity RRT 1.39", "setting": "25° C./60% RH, 4 weeks", "value": 0.07, "unit": "% w/w"},
      {"measurement": "Unknown Impurity RRT 1.41", "setting": "25° C./60% RH, 4 weeks", "value": 0.01, "unit": "% w/w"},
      {"measurement": "Unknown Impurity RRT 1.46", "setting": "25° C./60% RH, 4 weeks", "value": 0.09, "unit": "% w/w"},
      {"measurement": "Unknown Impurity RRT 1.72", "setting": "25° C./60% RH, 4 weeks", "value": 0.05, "unit": "% w/w"},
      {"measurement": "Unknown Impurity RRT 2.3", "setting": "25° C./60% RH, 4 weeks", "value": 0.05, "unit": "% w/w"},
      {"measurement": "Unknown Impurity RRT 2.59", "setting": "25° C./60% RH, 4 weeks", "value": 0.04, "unit": "% w/w"},
      {"measurement": "Unknown Impurity RRT 2.79", "setting": "25° C./60% RH, 4 weeks", "value": 0.03, "unit": "% w/w"},
      {"measurement": "3L1O Purity", "setting": "25° C./60% RH, 4 weeks", "value": 98.66, "unit": "% Area"},
      {"measurement": "Total Impurities", "setting": "25° C./60% RH, 4 weeks", "value": 1.34, "unit": "% Area"},
      {"measurement": "Unknown Impurity RRT 0.24", "setting": "25° C./60% RH, 8 Weeks", "value": 0.04, "unit": "% w/w"},
      {"measurement": "Unknown Impurity RRT 0.58", "setting": "25° C./60% RH, 8 Weeks", "value": 0.07, "unit": "% w/w"},
      {"measurement": "Unknown Impurity RRT 0.59", "setting": "25° C./60% RH, 8 Weeks", "value": 0.05, "unit": "% w/w"},
      {"measurement": "Unknown Impurity RRT 0.62", "setting": "25° C./60% RH, 8 Weeks", "value": 0.06, "unit": "% w/w"},
      {"measurement": "Unknown Impurity RRT 0.87", "setting": "25° C./60% RH, 8 Weeks", "value": 0.15, "unit": "% w/w"},
      {"measurement": "Unknown Impurity RRT 0.89", "setting": "25° C./60% RH, 8 Weeks", "value": 0.02, "unit": "% w/w"},
      {"measurement": "Unknown Impurity RRT 1.03", "setting": "25° C./60% RH, 8 Weeks", "value": 0.08, "unit": "% w/w"},
      {"measurement": "Unknown Impurity RRT 1.11", "setting": "25° C./60% RH, 8 Weeks", "value": 0.05, "unit": "% w/w"},
      {"measurement": "Unknown Impurity RRT 1.27", "setting": "25° C./60% RH, 8 Weeks", "value": 0.41, "unit": "% w/w"},
      {"measurement": "Unknown Impurity RRT 1.3", "setting": "25° C./60% RH, 8 Weeks", "value": 0.23, "unit": "% w/w"},
      {"measurement": "Unknown Impurity RRT 1.39", "setting": "25° C./60% RH, 8 Weeks", "value": 0.07, "unit": "% w/w"},
      {"measurement": "Unknown Impurity RRT 1.41", "setting": "25° C./60% RH, 8 Weeks", "value": 0.01, "unit": "% w/w"},
      {"measurement": "Unknown Impurity RRT 1.46", "setting": "25° C./60% RH, 8 Weeks", "value": 0.09, "unit": "% w/w"},
      {"measurement": "Unknown Impurity RRT 1.73", "setting": "25° C./60% RH, 8 Weeks", "value": 0.06, "unit": "% w/w"},
      {"measurement": "Unknown Impurity RRT 2.31", "setting": "25° C./60% RH, 8 Weeks", "value": 0.07, "unit": "% w/w"},
      {"measurement": "Unknown Impurity RRT 2.6", "setting": "25° C./60% RH, 8 Weeks", "value": 0.05, "unit": "% w/w"},
      {"measurement": "Unknown Impurity RRT 2.8", "setting": "25° C./60% RH, 8 Weeks", "value": 0.03, "unit": "% w/w"},
      {"measurement": "3L1O Purity", "setting": "25° C./60% RH, 8 Weeks", "value": 98.47, "unit": "% Area"},
      {"measurement": "Total Impurities", "setting": "25° C./60% RH, 8 Weeks", "value": 1.53, "unit": "% Area"},
      {"measurement": "Unknown Impurity RRT 0.24", "setting": "40° C./75% RH, 2 Weeks", "value": 0.06, "unit": "% w/w"},
      {"measurement": "Unknown Impurity RRT 0.58", "setting": "40° C./75% RH, 2 Weeks", "value": 0.07, "unit": "% w/w"},
      {"measurement": "Unknown Impurity RRT 0.59", "setting": "40° C./75% RH, 2 Weeks", "value": 0.06, "unit": "% w/w"},
      {"measurement": "Unknown Impurity RRT 0.62", "setting": "40° C./75% RH, 2 Weeks", "value": 0.06, "unit": "% w/w"},
      {"measurement": "Unknown Impurity RRT 0.81", "setting": "40° C./75% RH, 2 Weeks", "value": 0.02, "unit": "% w/w"},
      {"measurement": "Unknown Impurity RRT 0.87", "setting": "40° C./75% RH, 2 Weeks", "value": 0.13, "unit": "% w/w"},
      {"measurement": "Unknown Impurity RRT 0.89", "setting": "40° C./75% RH, 2 Weeks", "value": 0.07, "unit": "% w/w"},
      {"measurement": "Unknown Impurity RRT 1.02", "setting": "40° C./75% RH, 2 Weeks", "value": 0.07, "unit": "% w/w"},
      {"measurement": "Unknown Impurity RRT 1.11", "setting": "40° C./75% RH, 2 Weeks", "value": 0.06, "unit": "% w/w"}
    ]}
  ]
}
